Patent US10952436B2, “Microbiocidal quinoline (thio)carboxamide derivatives” (SYNGENTA PARTICIPATIONS AG, priority 2017, dated 2021)

Experiments:
[1] = system: Fusarium culmorum; assay: microbe, parasite or virus in culture; assay type: cell-based; settings: read-out: control of Fusarium culmorum
[2] = system: Fusarium culmorum; assay: whole plant or invertebrate; assay type: in vivo; settings: in Triticum aestivum, read-out: control of Fusarium culmorum
[3] = system: Sclerotinia sclerotiorum; assay: Sclerotinia sclerotiorum/Liquid Culture (Cottony Rot); settings: read-out: control of Sclerotinia sclerotiorum
Method: Mycelia fragments of a newly grown liquid culture of the fungus are directly mixed into nutrient broth (Vogels broth). After placing a (DMSO) solution of test compound into a microtiter plate (96-well format) the nutrient broth containing the fungal material is added. The test plates are incubated at 24° C. and the inhibition of growth is determined photometrically 3-4 days after application.

[4] = system: Monographella nivalis (Microdochium nivale); assay: Monographella nivalis (Microdochium nivale)/Liquid Culture (Foot Rot Cereals); assay type: cell-based; settings: 200 ppm, liquid culture, compared to untreated control, 4-5 days after application, read-out: control of Monographella nivalis
[5] = system: Botryotinia fuckeliana (Botrytis cinerea); assay: Botryotinia fuckeliana (Botrytis cinerea)/Liquid Culture (Gray Mould); assay type: cell-based; settings: 200 ppm, liquid culture, compared to untreated control, 3-4 days after application, read-out: control of Botryotinia fuckeliana
[6] = system: Magnaporthe grisea (Pyricularia oryzae); assay: microbe, parasite or virus in culture; assay type: cell-based; settings: read-out: control of Magnaporthe grisea
[7] = system: Glomerella lagenarium (Colletotrichum lagenarium); assay: Glomerella lagenarium (Colletotrichum lagenarium)/Liquid Culture (Anthracnose); assay type: cell-based; settings: Colletotrichum orbiculare; 200 ppm; liquid culture, compared to untreated control, 3-4 days after application; read-out: control of Glomerella lagenarium

C[C@](Cc1ccccc1)(CC(F)(F)F)C(=O)Nc1cnc2c(F)cccc2c1 (single isomer, unassigned) [Compound F-23]
≥ 80%: inhibition of growth at 200 ppm [1] | pest or weed control at 200 ppm [2] | inhibition of growth at 20 ppm [3] | inhibition of growth at 200 ppm [4] | inhibition of growth at 200 ppm [5] | inhibition of growth at 200 ppm [6] | inhibition of growth at 200 ppm [7]

CC(Cc1cccc(F)c1)(CC(F)(F)F)C(=O)Nc1cnc2c(F)cccc2c1 (stereo not drawn) [Compound E-22, 4,4,4-trifluoro-2-[(3-fluorophenyl)methyl]-N-(8-fluoro-3-quinolyl)-2-methyl-butanamide]
≥ 80%: inhibition of growth at 200 ppm [1] | inhibition of growth at 20 ppm [3] | inhibition of growth at 200 ppm [4] | inhibition of growth at 200 ppm [5] | inhibition of growth at 200 ppm [6] | inhibition of growth at 200 ppm [7]

CC(Cc1ccccc1)(CC(F)(F)Cl)C(=O)Nc1cnc2c(F)cccc2c1 (stereo not drawn) [Compound E-56, 2-benzyl-4-chloro-4,4-difluoro-N-(8-fluoro-3-quinolyl)-2-methyl-butanamide]
≥ 80%: inhibition of growth at 200 ppm [1] | pest or weed control at 200 ppm [2] | inhibition of growth at 20 ppm [3] | inhibition of growth at 200 ppm [4] | inhibition of growth at 200 ppm [5] | inhibition of growth at 200 ppm [6] | inhibition of growth at 200 ppm [7]

CC(Cc1ccccc1)(CC(F)(F)F)C(=O)Nc1cnc2ccccc2c1 (stereo not drawn) [Compound E-81, 2-benzyl-4,4,4-trifluoro-2-methyl-N-(3-quinolyl)butanamide]
≥ 80%: inhibition of growth at 200 ppm [1] | pest or weed control at 200 ppm [2] | inhibition of growth at 20 ppm [3] | inhibition of growth at 200 ppm [5] | inhibition of growth at 200 ppm [6] | inhibition of growth at 200 ppm [7]

Cc1c(NC(=O)[C@](C)(Cc2ccccc2)CC(C)C)cnc2c(F)cccc12 [Compound F-3, (2S)-2-benzyl-N-(8-fluoro-4-methyl-3-quinolyl)-2,4-dimethyl-pentanamide]
≥ 80%: inhibition of growth at 200 ppm [1] | inhibition of growth at 20 ppm [3] | inhibition of growth at 200 ppm [4] | inhibition of growth at 200 ppm [5] | inhibition of growth at 200 ppm [6] | inhibition of growth at 200 ppm [7]

C=C(C)C[C@@](C)(Cc1ccccc1)C(=O)Nc1cnc2c(F)cccc2c1C [Compound F-5, (2S)-2-benzyl-N-(8-fluoro-4-methyl-3-quinolyl)-2,4-dimethyl-pent-4-enamide]
≥ 80%: inhibition of growth at 200 ppm [1] | inhibition of growth at 20 ppm [3] | inhibition of growth at 200 ppm [4] | inhibition of growth at 200 ppm [5] | inhibition of growth at 200 ppm [6] | inhibition of growth at 200 ppm [7]

Cc1nc2c(F)cccc2cc1NC(=O)[C@](C)(Cc1ccccc1)CC(C)C [Compound F-7, (2S)-2-benzyl-N-(8-fluoro-2-methyl-3-quinolyl)-2,4-dimethyl-pentanamide]
≥ 80%: inhibition of growth at 200 ppm [1] | pest or weed control at 200 ppm [2] | inhibition of growth at 20 ppm [3] | inhibition of growth at 200 ppm [4] | inhibition of growth at 200 ppm [5] | inhibition of growth at 200 ppm [6] | inhibition of growth at 200 ppm [7]

C[C@](Cc1ccccc1)(CC(F)(F)F)C(=O)Nc1cnc2c(F)c(F)ccc2c1 [Compound F-15, (2S)-2-benzyl-N-(7,8-difluoro-3-quinolyl)-4,4,4-trifluoro-2-methyl-butanamide]
≥ 80%: inhibition of growth at 200 ppm [1] | inhibition of growth at 20 ppm [3] | inhibition of growth at 200 ppm [4] | inhibition of growth at 200 ppm [5] | inhibition of growth at 200 ppm [6] | inhibition of growth at 200 ppm [7]
